Experimental data from patent publication US10508120B2, “TYK2 inhibitors and uses thereof” (Nimbus Lakshmi, Inc., priority 2017, dated 2019).
Like-named read-outs stand apart in the source and are kept apart here.

What was measured:
[1] = target: JAK2 kinase domain (JH1) (Homo sapiens (Human), UniProt O60674); assay: JAK2 Radioactive Kinase Assay; type: biochemical; details: for inhibition at 10 µM: read-out: JAK2 JH1% Inhibition @ 10 μM
How it was run: (§1)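 Each kinase domain is incubated with test compound at 10 μM. Activity is then measured radiometrically and expressed as percent inhibition relative to uninhibited enzyme.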

[2] = target: JAK2/JAK2 homdimeric complex (Homo sapiens (Human), UniProt O60674); assay: GM-CSF Induced pSTAT5 in Human PBMC; type: cell-based; details: GM-CSF 5 ng/mL for 20 minutes, pSTAT5 by MSD, read-out: PBMC_GMCSF_pSTAT5 IC50
JAK2/JAK2 homdimeric complex, sequence (O60674 whole entry, the tested form may be a part): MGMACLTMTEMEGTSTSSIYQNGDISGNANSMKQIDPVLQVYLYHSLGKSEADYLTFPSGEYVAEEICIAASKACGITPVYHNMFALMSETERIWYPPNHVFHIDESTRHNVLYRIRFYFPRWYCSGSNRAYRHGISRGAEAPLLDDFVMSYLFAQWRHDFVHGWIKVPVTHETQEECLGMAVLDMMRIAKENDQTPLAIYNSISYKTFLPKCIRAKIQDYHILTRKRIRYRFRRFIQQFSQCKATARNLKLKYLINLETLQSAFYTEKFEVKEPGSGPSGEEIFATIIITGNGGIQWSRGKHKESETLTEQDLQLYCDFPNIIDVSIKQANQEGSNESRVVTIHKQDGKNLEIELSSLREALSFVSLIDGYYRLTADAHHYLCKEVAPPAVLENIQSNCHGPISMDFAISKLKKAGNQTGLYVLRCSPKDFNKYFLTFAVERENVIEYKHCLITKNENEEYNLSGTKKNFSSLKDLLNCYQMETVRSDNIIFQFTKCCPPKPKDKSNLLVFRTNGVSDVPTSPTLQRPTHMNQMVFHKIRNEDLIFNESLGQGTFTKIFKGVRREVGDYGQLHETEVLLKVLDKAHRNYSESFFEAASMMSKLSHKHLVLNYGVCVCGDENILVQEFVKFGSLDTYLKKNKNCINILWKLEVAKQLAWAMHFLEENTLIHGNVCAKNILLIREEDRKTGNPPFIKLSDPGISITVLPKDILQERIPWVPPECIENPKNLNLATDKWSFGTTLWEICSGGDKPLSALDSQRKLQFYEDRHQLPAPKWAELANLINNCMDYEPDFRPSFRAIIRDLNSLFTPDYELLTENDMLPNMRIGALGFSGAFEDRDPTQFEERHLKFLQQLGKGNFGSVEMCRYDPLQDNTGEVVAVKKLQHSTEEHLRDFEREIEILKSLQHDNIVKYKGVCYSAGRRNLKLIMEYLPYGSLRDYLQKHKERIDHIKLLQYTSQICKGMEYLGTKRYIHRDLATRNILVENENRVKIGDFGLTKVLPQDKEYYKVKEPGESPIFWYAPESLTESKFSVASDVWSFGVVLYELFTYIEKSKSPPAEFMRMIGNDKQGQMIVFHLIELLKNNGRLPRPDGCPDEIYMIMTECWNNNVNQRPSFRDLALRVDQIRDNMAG
JAK2/JAK2 homdimeric complex, sequence (P32927 17-897 partner): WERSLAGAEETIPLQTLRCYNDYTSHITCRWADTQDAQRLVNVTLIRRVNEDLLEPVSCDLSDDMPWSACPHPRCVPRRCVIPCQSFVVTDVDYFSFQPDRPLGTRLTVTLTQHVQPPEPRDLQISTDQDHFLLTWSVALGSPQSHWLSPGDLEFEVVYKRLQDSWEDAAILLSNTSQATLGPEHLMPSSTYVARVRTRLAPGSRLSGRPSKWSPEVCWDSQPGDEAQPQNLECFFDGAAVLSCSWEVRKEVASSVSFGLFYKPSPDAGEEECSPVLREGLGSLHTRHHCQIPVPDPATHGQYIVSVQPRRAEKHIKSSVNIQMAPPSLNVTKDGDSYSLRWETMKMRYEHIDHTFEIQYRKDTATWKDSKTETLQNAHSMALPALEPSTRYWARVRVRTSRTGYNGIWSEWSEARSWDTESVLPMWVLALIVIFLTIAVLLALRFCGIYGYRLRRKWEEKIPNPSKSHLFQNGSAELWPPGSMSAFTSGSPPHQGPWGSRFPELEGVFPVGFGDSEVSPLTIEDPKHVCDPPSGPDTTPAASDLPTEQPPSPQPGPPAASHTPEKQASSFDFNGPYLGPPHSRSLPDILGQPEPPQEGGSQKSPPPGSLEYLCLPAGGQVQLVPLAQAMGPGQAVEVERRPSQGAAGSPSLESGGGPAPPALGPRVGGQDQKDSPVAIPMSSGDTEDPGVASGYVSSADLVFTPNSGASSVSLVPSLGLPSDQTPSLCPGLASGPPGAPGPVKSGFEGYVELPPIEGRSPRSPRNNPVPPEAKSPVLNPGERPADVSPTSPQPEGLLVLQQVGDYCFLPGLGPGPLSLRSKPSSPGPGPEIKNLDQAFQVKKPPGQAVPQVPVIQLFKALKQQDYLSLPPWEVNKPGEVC

[3] = target: Tyk2 kinase domain (DH1) (Homo sapiens (Human), UniProt P29597); assay: Tyk2 Radioactive Kinase Assay; type: biochemical; details: for inhibition at 10 µM: read-out: Tyk2 JH1% Inhibition @ 10 μM
Tyk2 kinase domain (DH1), sequence (P29597 897-1176): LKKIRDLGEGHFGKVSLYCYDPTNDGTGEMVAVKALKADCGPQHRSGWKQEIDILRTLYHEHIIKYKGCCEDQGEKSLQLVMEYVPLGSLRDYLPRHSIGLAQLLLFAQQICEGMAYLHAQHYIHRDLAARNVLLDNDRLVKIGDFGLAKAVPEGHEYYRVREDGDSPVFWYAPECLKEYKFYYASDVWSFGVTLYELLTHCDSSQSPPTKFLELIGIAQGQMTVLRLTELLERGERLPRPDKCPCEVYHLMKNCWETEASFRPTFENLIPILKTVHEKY
How it was run: as §1

[4] = target: human TYK2 (JH2domain-pseudokinase) (Homo sapiens (Human), UniProt P29597); assay: TYK2 JH2 Domain Binding Assay (KINOMEscan)
human TYK2 (JH2domain-pseudokinase), sequence (P29597 556-888): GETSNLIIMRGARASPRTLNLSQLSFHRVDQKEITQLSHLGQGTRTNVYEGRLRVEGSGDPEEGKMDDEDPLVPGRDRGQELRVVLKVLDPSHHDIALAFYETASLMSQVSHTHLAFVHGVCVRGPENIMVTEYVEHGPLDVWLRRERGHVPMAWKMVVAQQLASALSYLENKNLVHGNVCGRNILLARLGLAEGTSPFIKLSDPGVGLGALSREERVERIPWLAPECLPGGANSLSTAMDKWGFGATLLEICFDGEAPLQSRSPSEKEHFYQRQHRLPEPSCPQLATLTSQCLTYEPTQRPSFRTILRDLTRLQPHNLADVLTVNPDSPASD
How it was run: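 Pseudokinase domain binding was measured by qPCR of tagged, bead-retained kinase after 1 h room-temperature competition, with 0.9% DMSO and compound up to 30,000 nM in 3-fold steps. Hill-equation Kd, duplicate.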

JAK2 kinase domain (JH1), sequence (O60674 849-1124): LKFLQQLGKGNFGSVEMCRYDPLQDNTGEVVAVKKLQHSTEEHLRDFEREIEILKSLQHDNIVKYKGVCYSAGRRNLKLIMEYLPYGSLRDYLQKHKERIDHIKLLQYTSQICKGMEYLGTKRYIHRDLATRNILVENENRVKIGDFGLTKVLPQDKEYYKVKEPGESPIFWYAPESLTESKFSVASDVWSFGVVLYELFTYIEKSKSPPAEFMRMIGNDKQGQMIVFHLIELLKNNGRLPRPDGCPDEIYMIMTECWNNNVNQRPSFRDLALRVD

inhibition at 10 µM ([1]; 10 μM compound, 10 μM ATP) [%] | IC50 [2] [µM] | inhibition at 10 µM ([3]; 10 μM compound, 10 μM ATP) [%] | Kd [4] [µM] | SMILES | inhibition at 10 µM [1] [%] | inhibition at 10 µM [3] [%] | JAK2 JH1% Inhibition @ 10 μM ([1]; 10 μM compound, 10 μM ATP) | Tyk2 JH1% Inhibition @ 10 μM ([3]; 10 μM compound, 10 μM ATP)
< 50 | > 50 | – | – | CNc1cc(Nc2cccn([C@@H]3CCCOC3)c2=O)nc2c(C(=O)NC3CCC3OC)cnn12 (mixture of isomers) [I-814, N-(-2-methoxycyclobutyl)-7-(methylamino)-5-((2-oxo-1-((R)-tetrahydro-2H-pyran-3-yl)-1,2-dihydropyridin-3-yl)amino)pyrazolo[1,5-a]pyrimidine-3-carboxamide] | – | – | – | –
< 50 | > 12.5 | < 50 | < 0.0002 | CNc1cc(-c2cn(C3CC3)c3ncccc23)nc2c(C(=O)N[C@H]3CC[C@@H]3OC)cnn12 (stereo in doubt) [I-1067, 5-(1-cyclopropyl-1H-pyrrolo[2,3-b]pyridin-3-yl)-N-(2-methoxycyclobutyl)-7-(methylamino)pyrazolo[1,5-a]pyrimidine-3-carboxamide] | – | – | – | –
< 50 | > 12.5 | – | – | CNc1cc(Nc2cccn([C@H]3CCCOC3)c2=O)nc2c(C(=O)N[C@@H]3CC[C@H]3OC)cnn12 [I-815] | – | – | – | –
< 50 | > 50 | – | – | CNc1cc(Nc2cccn([C@H]3CCCOC3)c2=O)nc2c(C(=O)N[C@H]3CC[C@@H]3OC)cnn12 [I-877] | – | – | – | –
< 50 | > 50 | < 50 | < 0.0002 | CNc1cc(Nc2cccn([C@H]3CCCC[C@H]3O)c2=O)nc2c(C(=O)NC3CC3)cnn12 [I-878] | – | – | – | –
– | > 50 | – | – | CNc1cc(Nc2cccn([C@@H]3CCCOC3)c2=O)nc2c(C(=O)N[C@@H]3CC[C@H]3OC)cnn12 [I-902, N-((1R,2R)-2-methoxycyclobutyl)-7-(methylamino)-5-((2-oxo-1-((R)-tetrahydro-2H-pyran-3-yl)-1,2-dihydropyridin-3-yl)amino)pyrazolo[1,5-a]pyrimidine-3-carboxamide] | – | – | A (percent inhibition at 10 μM lower than 50) | –
< 50 | > 12.5 | < 50 | < 0.0002 | CNc1cc(Nc2cc(Cl)cn(-c3cnn(C)c3F)c2=O)nc2c(C(=O)NC3CC3)cnn12 [I-955] | – | – | – | –
– | > 50 | – | – | CNc1cc(Nc2cccn([C@@H]3CCC[C@@H](OC)C3)c2=O)nc2c(C(=O)NC3CC3)cnn12 [I-957] | – | – | A (percent inhibition at 10 μM lower than 50) | A (percent inhibition at 10 μM lower than 50)
< 50 | > 50 | < 50 | < 0.0002 | CNc1cc(Nc2cccn(C3CCC[C@H](OC)C3)c2=O)nc2c(C(=O)NCC(C)(C)CO)cnn12 (some centres unmarked) [I-958] | – | – | – | –
– | > 50 | – | < 0.0002 | CNc1cc(Nc2cccn([C@H]3CC[C@](C)(OC)CC3)c2=O)nc2c(C(=O)N[C@@H]3CC[C@H]3O)cnn12 [I-962] | – | – | A (percent inhibition at 10 μM lower than 50) | A (percent inhibition at 10 μM lower than 50)
< 50 | > 50 | < 50 | < 0.0002 | CNc1cc(Nc2cccn([C@H]3CCC[C@H]3O)c2=O)nc2c(C(=O)NC3CC3)cnn12 [I-963] | – | – | – | –
< 50 | > 50 | < 50 | < 0.0002 | CNc1cc(Nc2cccn([C@H]3CCC[C@H]3O)c2=O)nc2c(C(=O)N[C@@H]3C[C@@H]3F)cnn12 [I-965] | – | – | – | –
< 50 | > 50 | < 50 | < 0.0002 | CNc1cc(Nc2cccc(N3CCCC3=O)n2)nc2c(C(=O)N[C@H]3CC[C@H]3O)cnn12 [I-969] | – | – | – | –
< 50 | > 50 | < 50 | – | CNc1cc(Nc2cccn(-c3ccccn3)c2=O)nc2c(C(=O)N[C@H]3CC[C@@H]3O)cnn12 [I-971] | – | – | – | –
– | > 50 | – | – | CNc1cc(Nc2cccn(-c3cncc(F)c3)c2=O)nc2c(C(=O)N[C@H]3CC[C@@H]3OC)cnn12 [I-984] | – | – | A (percent inhibition at 10 μM lower than 50) | –
– | > 50 | – | – | CNc1cc(Nc2cccn([C@H]3CCC[C@@H](OC)C3)c2=O)nc2c(C(=O)N[C@@H]3CC[C@H]3O)cnn12 [I-993] | – | – | A (percent inhibition at 10 μM lower than 50) | A (percent inhibition at 10 μM lower than 50)
– | > 50 | – | < 0.0002 | CNc1cc(Nc2cccn([C@H]3CCC[C@@H](OC)C3)c2=O)nc2c(C(=O)N[C@H]3CC[C@@H]3OC)cnn12 [I-996] | – | – | A (percent inhibition at 10 μM lower than 50) | A (percent inhibition at 10 μM lower than 50)
< 50 | > 50 | < 50 | < 0.0002 | CNc1cc(Nc2cccn([C@@H]3CC[C@H]3O)c2=O)nc2c(C(=O)N[C@@H]3C[C@@H]3F)cnn12 [I-999] | – | – | – | –
– | > 12.5 | – | < 0.0002 | CNc1cc(Nc2cccn(-c3cccc(F)c3)c2=O)nc2c(C(=O)N[C@H]3CC[C@H]3O)cnn12 [I-1004] | – | – | A (percent inhibition at 10 μM lower than 50) | A (percent inhibition at 10 μM lower than 50)
< 50 | > 50 | < 50 | < 0.0002 | CNc1cc(Nc2cccn([C@H]3CCC[C@H](OC)C3)c2=O)nc2c(C(=O)NCC3(CO)CC3)cnn12 [I-1010] | – | – | – | –
< 50 | > 12.5 | < 50 | < 0.0002 | CNc1cc(-c2cn(C(C)C)c3ncc(F)cc23)nc2c(C(=O)N[C@H]3CC[C@H]3O)cnn12 [I-1013, 5-(5-fluoro-1-isopropyl-1-pyrrolo[2,3-b]pyridin-3-yl)-N-(2-hydroxycyclobutyl)-7-(methylamino)pyrazolo[1,5-a]pyrimidine-3-carboxamide] | – | – | – | –
< 50 | > 12.5 | < 50 | < 0.0002 | CNc1cc(Nc2cccn(-c3cnco3)c2=O)nc2c(C(=O)N[C@H]3CC[C@H]3O)cnn12 [I-1017] | – | – | – | –
< 50 | > 12.5 | < 50 | < 0.0002 | CNc1cc(Nc2cccn([C@@H]3CC[C@H]3OC)c2=O)nc2c(C(=O)N[C@@H]3C[C@@H]3F)cnn12 [I-1022] | – | – | – | –
< 50 | > 50 | < 50 | < 0.0002 | CNc1cc(Nc2cccn([C@H]3CCC[C@H](OC)C3)c2=O)nc2c(C(=O)NC3CC3)cnn12 [I-1025] | – | – | – | –
< 50 | > 50 | < 50 | < 0.0002 | CNc1cc(Nc2cccn([C@H]3CCC[C@H](OC)C3)c2=O)nc2c(C(=O)NCC(C)(C)CO)cnn12 [I-1027] | – | – | – | –
< 50 | > 2.5 | < 50 | < 0.0002 | CNc1cc(Nc2cccn([C@@H]3CCC[C@@H](O)C3)c2=O)nc2c(C(=O)N[C@@H]3C[C@@H]3F)cnn12 [I-1029] | – | – | – | –
< 50 | > 2.5 | < 50 | < 0.0002 | CNc1cc(Nc2cccn(-c3ccccc3F)c2=O)nc2c(C(=O)N[C@H]3CC[C@H]3O)cnn12 [I-1035] | – | – | – | –
< 50 | > 50 | < 50 | < 0.0002 | CNc1cc(Nc2cccn(-c3ccccc3F)c2=O)nc2c(C(=O)N[C@H]3CC[C@@H]3O)cnn12 [I-1038] | – | – | – | –
< 50 | > 2.5 | < 50 | < 0.0002 | CNc1cc(Nc2cccn([C@H]3CCC[C@H](OC)C3)c2=O)nc2c(C(=O)N[C@@H]3CC3F)cnn12 (some centres unmarked) [I-1042] | – | – | – | –
< 50 | > 50 | < 50 | – | CNc1cc(Nc2cccn([C@H]3[C@@H]4COC[C@@H]43)c2=O)nc2c(C(=O)N[C@H]3CC[C@@H]3OC)cnn12 [I-1088] | – | – | – | –

SMILES | inhibition at 10 µM ([1]; 10 μM compound, 10 μM ATP) [%] | IC50 [2] [µM] | inhibition at 10 µM ([3]; 10 μM compound, 10 μM ATP) [%] | Kd [4] [µM] | inhibition at 10 µM [1] [%] | inhibition at 10 µM [3] [%] | JAK2 JH1% Inhibition @ 10 μM ([1]; 10 μM compound, 10 μM ATP) | Tyk2 JH1% Inhibition @ 10 μM ([3]; 10 μM compound, 10 μM ATP)
CNc1cc(Nc2cccn(-c3ccccn3)c2=O)nc2c(C(=O)N[C@@H]3CC[C@H]3OC)cnn12 (stereo in doubt) [I-816, N-(2-methoxycyclobutyl)-7-(methylamino)-5-((2-oxo-2H-[1,2′-bipyridin]-3-yl)amino)pyrazolo[1,5-a]pyrimidine-3-carboxamide] | – | > 2.5 | – | – | < 50 | < 50 | – | –
CNc1cc(Nc2cccnc2OC)nc2c(C(=O)NOC(C)(C)C)cnn12 [I-612, N-(tert-butoxy)-5-((2-methoxypyridin-3-yl)amino)-7-(methylamino) pyrazolo[1,5-a]pyrimidine-3-carboxamide] | – | > 50 | – | – | < 50 | – | – | –
CCONC(=O)c1cnn2c(NC)cc(Nc3cccn(-c4ncccc4F)c3=O)nc12 [I-798, N-ethoxy-5-((3′-fluoro-2-oxo-2H-[1,2′-bipyridin]-3-yl)amino)-7-(methylamino) pyrazolo[1,5-a]pyrimidine-3-carboxamide] | – | > 50 | – | – | < 50 | – | – | –
CNc1cc(Nc2cccn(-c3ccccn3)c2=O)nc2c(C(=O)N[C@@H]3CC[C@H]3OC)cnn12 [I-908, N-((1R,2R)-2-methoxycyclobutyl)-7-(methylamino)-5-((2-oxo-2H-[1,2′-bipyridin]-3-yl)amino)pyrazolo[1,5-a]pyrimidine-3-carboxamide] | – | > 50 | – | – | – | – | A (percent inhibition at 10 μM lower than 50) | A (percent inhibition at 10 μM lower than 50)
